Experimental data published in PubChem BioAssay (NCI).
Where “and” joins values, the source holds several entries; their conditions need not be identical. Equal values may be shown once.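 Five compound concentrations were applied to cells in 96-well plates for 48 hours; endpoints were derived by simple linear interpolation of the resulting dose-response curve. GI50 = concentration required for 50% inhibition of growth. Definition used: TGI = concentration required for complete inhibition of growth.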

What was measured:
Test in all cases: NCI anticancer screen, dose series, 48 h
[1] = test system: DU-145 prostate
[2] = test system: EKVX NSCLC
[3] = test system: K-562 leukemia
[4] = test system: OVCAR-5 ovarian
[5] = test system: PC-3 prostate
[6] = test system: SF-295 CNS
[7] = test system: SK-MEL-2 melanoma
[8] = test system: T-47D breast

Compound	GI50 [1]	TGI [1]	GI50 [2]	TGI [2]	GI50 [3]	TGI [3]	GI50 [4]	TGI [4]	GI50 [5]	TGI [5]	GI50 [6]	TGI [6]	GI50 [7]	TGI [7]	GI50 [8]	TGI [8]
Cc1nnc(N/N=C/c2ccc([N+](=O)[O-])o2)[nH]c1=O	2.1 µM	> 100 µM	1.05 µM	> 100 µM	0.796 µM	> 100 µM	2.98 µM	> 100 µM	0.512 µM	> 100 µM	1.93 µM	> 100 µM	3.14 µM	> 48.8 µM	1.07 µM	13.8 µM
CCN(CC)CCOc1nc2ccccc2c2c1-c1ccc(OC)cc1C2=O	0.505 µM	2.16 µM	1.59 µM	4.79 µM	0.276 µM	1.19 µM	1.61 µM	7.51 µM	1.44 µM	23.3 µM	1.91 µM	12.4 µM	2.14 µM	4.36 µM	2.51 µM	8.8 µM
Cc1[nH]nc(C(F)(F)F)c1Cc1sc2c(c1C(=O)N1C[C@](C)(O)CO1)c(=O)n(C)c(=O)n2C(C)C	> 100 µM	> 100 µM	> 100 µM	> 100 µM	–	> 100 µM	> 100 µM	> 100 µM	> 100 µM	> 100 µM	> 100 µM	> 100 µM	> 100 µM	> 100 µM	> 100 µM	> 100 µM
COc1cc(OC)c(/C=C/C(=O)c2c(OC)cc(OC)cc2OC)c(OC)c1	2.21 µM	8.51 µM	3.61 µM	> 100 µM	0.394 µM	> 100 µM	2.8 µM	53 µM	0.992 µM	> 100 µM	0.75 µM	> 21 µM	0.984 µM	> 21.8 µM	2.01 µM	> 100 µM
COc1cc2c(cc1OCC(=O)Nc1ccc(Cl)cc1C(=O)c1ccccc1Cl)N=CC1CCCN1C2=O (centres undefined)	2.65 µM	8.56 µM	20.3 µM	35.1 µM	4.23 µM	19.9 µM	24.6 µM	45.5 µM	12.3 µM	33.2 µM	8.48 µM	22.9 µM	7.4 µM	19.6 µM	5.21 µM	22.2 µM
O=C(Nc1ccc(Cl)c(Cl)c1)c1ccc(NC2=C(Cl)C(=O)N(Cc3ccccc3)C2=O)cc1	4.32 µM	16.6 µM	23.3 µM	48.6 µM	2.34 µM	5.93 µM	2.95 µM	8.91 µM	3.55 µM	13.4 µM	13.6 µM	34.7 µM	10.1 µM	22.1 µM	31.6 µM	92 µM
Cc1ccc(NC(=O)COc2ccc(Cl)cc2)cc1Cl	–	> 100 µM	–	> 100 µM	–	> 100 µM	–	> 100 µM	–	> 100 µM	–	> 100 µM	–	> 100 µM	–	> 100 µM
O=C1OC(OC/C(Br)=C(\Br)COC2OC(=O)C(Cl)=C2Cl)C(Cl)=C1Cl (centres undefined)	–	28.5 µM	–	22.8 µM	–	5.55 µM	–	30 µM	–	27.8 µM	–	34.7 µM	–	35.9 µM	–	34.6 µM
Cc1c(C(=O)Nc2ccc(N3C[C@@H](C)O[C@@H](C)C3)nc2)cccc1-c1ccc(OC(F)(F)F)cc1	8.25 µM and 4.84 µM	25.1 µM and 20.9 µM	5.73 µM and 4.55 µM	28.4 µM and 34.2 µM	3.44 µM and 3.16 µM	> 100 µM	15.7 µM and 19.6 µM	42.7 µM and 48.9 µM	5.44 µM and 6.68 µM	27 µM and 36.8 µM	5.34 µM and 3.84 µM	26.5 µM and 26.1 µM	13.1 µM and 21.6 µM	44.9 µM and > 100 µM	2.69 µM and 2.41 µM	25.2 µM and 17.6 µM
CC1=C(CCC(C)CO)O[C@H]2C[C@H]3[C@@H]4CC[C@H]5C[C@@H](O)CC[C@]5(C)[C@H]4CC(=O)[C@]3(C)[C@@H]12 (some centres undefined)	–	55.1 µM	–	> 90.2 µM	–	40.7 µM	–	71.1 µM	–	21.2 µM	–	> 49.9 µM	–	30.6 µM	–	29.2 µM
COC(=O)[C@]1(C)CCC[C@@]2(C)C3=C(CC[C@H]12)C[C@@H](CC(OC(C)=O)OC(C)=O)[C@@H](C)C3	10.4 µM	23.3 µM	11.7 µM	23.9 µM	14.7 µM	> 50 µM	9.89 µM	18.4 µM	11.4 µM	> 29 µM	11 µM	26.7 µM	15.9 µM	> 37.4 µM	4.17 µM	13.7 µM
C=C1C(=O)O[C@@H]2/C=C(/C)[C@@H](OC(C)=O)C[C@@H](O)/C(C)=C\[C@@H](OC(=O)[C@]3(C)O[C@@H]3C)[C@@H]12	–	28.1 µM	–	24.4 µM	–	17.5 µM	–	32.6 µM	–	32.3 µM	–	> 100 µM	–	33.9 µM	–	24.1 µM
